According to patent US10597388B2, “Pyridazinone herbicides” (FMC CORPORATION, priority 2014, dated 2020):

Assays:
Assay type in all cases: in vivo
[1] = system: barnyardgrass (Echinochloa crus-galli); experiment: Test A greenhouse herbicide test, pre- and postemergence
Description: (§1) Seeds of plant species selected from barnyardgrass (Echinochloa crus-galli), kochia (Kochia scoparia), ragweed (common ragweed, Ambrosia elatior), ryegrass, Italian (Italian ryegrass, Lolium multiflorum), crabgrass, large (large crabgrass, Digitaria sanguinalis), foxtail, giant (giant foxtail, Setaria faberii), momingglory (Ipomoea spp.), pigweed (Amaranthus retroflexus), velvetleaf (Abutilon theophrasti), wheat (Triticum aestivum), and corn (Zea mays) were planted into a blend of loam soil and sand and treated preemergence with a directed soil spray using test chemicals formulated in a non-phytotoxic solvent mixture which included a surfactant.
(§2) At the same time, plants selected from these crop and weed species and also blackgrass (Alopecurus myosuroides), and galium (catchweed bedstraw, Galium aparine) were planted in pots containing the same blend of loam soil and sand and treated with postemergence applications of test chemicals formulated in the same manner. Plants ranged in height from 2 to 10 cm and were in the one- to two-leaf stage for the postemergence treatment. Treated plants and untreated controls were maintained in a greenhouse for approximately 10 d, after which time all treated plants were compared to untreated controls and visually evaluated for injury. Plant response ratings, summarized in Table A, are based on a 0 to 100 scale where 0 is no effect and 100 is complete control. A dash (-) response means no test result.

corn (Zea mays) = experiment: as above; conditions: Postemergence; for Corn plant response rating: 0 to 100 scale, 0 is no effect, 100 is complete control
Description: as §1, §2

[2] = system: foxtail, giant (giant foxtail, Setaria faberii); experiment: as above
Description: as §1, §2

kochia (Kochia scoparia) = experiment: as above
Description: as §1, §2

[3] = system: pigweed (Amaranthus retroflexus); experiment: as above
Description: as §1, §2

[4] = system: ragweed (common ragweed, Ambrosia elatior); experiment: as above
Description: as §1, §2

[5] = system: ryegrass, Italian (Italian ryegrass, Lolium multiflorum); experiment: as above
Description: as §1, §2

[6] = system: wheat (Triticum aestivum); experiment: as above; conditions: Postemergence; for Wheat plant response rating: 0 to 100 scale, 0 is no effect, 100 is complete control
Description: as §1, §2

[7] = system: blackgrass (Alopecurus myosuroides); experiment: Test A greenhouse herbicide test, postemergence; conditions: for Blackgrass plant response rating: 0 to 100 scale, 0 is no effect, 100 is complete control
How it was run: (§3)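 Plants grown in loam soil/sand blend pots were treated postemergence at 2 to 10 cm height, one- to two-leaf stage, with formulated test chemicals. After approximately 10 d in a greenhouse, injury was rated visually against untreated controls on a 0 to 100 scale (0 no effect, 100 complete control).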

[8] = system: galium (catchweed bedstraw, Galium aparine); experiment: Test A greenhouse herbicide test, postemergence; conditions: for Galium plant response rating: 0 to 100 scale, 0 is no effect, 100 is complete control
How it was run: as §3

[9] = system: barnyardgrass (Echinochloa crus-galli); experiment: Test B flooded paddy test; conditions: 250 g ai/ha, Flood; visual rating on scale of 0 to 100 where 0 is no effect and 100 is complete control; 13 to 15 d after treatment
Procedure: (§4) Plant species in the flooded paddy test selected from rice (Oryza sativa), sedge, umbrella (small-flower umbrella sedge, Cyperus difformis), ducksalad (Heteranthera limosa), and barnyardgrass (Echinochloa crus-galli) were grown to the 2-leaf stage for testing. At time of treatment, test pots were flooded to 3 cm above the soil surface, treated by application of test compounds directly to the paddy water, and then maintained at that water depth for the duration of the test. Treated plants and controls were maintained in a greenhouse for 13 to 15 d, after which time all species were compared to controls and visually evaluated. Plant response ratings, summarized in Table B, are based on a scale of 0 to 100 where 0 is no effect and 100 is complete control. A dash (-) response means no test result.

[10] = system: ducksalad (Heteranthera limosa); experiment: Test B flooded paddy test; conditions: 250 g ai/ha, Flood; visual rating on scale of 0 to 100 where 0 is no effect and 100 is complete control; 13 to 15 d after treatment
Procedure: as §4

rice (Oryza sativa) = experiment: Test B flooded paddy test; conditions: 250 g ai/ha, Flood; visual rating on scale of 0 to 100 where 0 is no effect and 100 is complete control; 13 to 15 d after treatment
Procedure: as §4

[11] = system: sedge, umbrella (small-flower umbrella sedge, Cyperus difformis); experiment: Test B flooded paddy test; conditions: 250 g ai/ha, Flood; visual rating on scale of 0 to 100 where 0 is no effect and 100 is complete control; 13 to 15 d after treatment
Procedure: as §4

[12] = Postemergence, 125 g ai/ha, 0 to 100 scale where 0 is no effect and 100 is complete control
[13] = Postemergence, 500 g ai/ha, 0 to 100 scale, 0 is no effect, 100 is complete control
[14] = Preemergence, 125 g ai/ha, 0 to 100 scale where 0 is no effect and 100 is complete control
[15] = Preemergence, 500 g ai/ha, 0 to 100 scale where 0 is no effect and 100 is complete control
[16] = 125 g ai/ha, 0 to 100 scale where 0 is no effect and 100 is complete control
[17] = Postemergence, 500 g ai/ha, visual rating after approx. 10 d, 0 to 100 scale (0 no effect, 100 complete control)
[18] = 500 g ai/ha, visual rating after approx. 10 d, 0 to 100 scale (0 no effect, 100 complete control)

Row | SMILES | Plant response rating, Barnyardgrass [1, 12] | Barnyardgrass plant response rating [1, 14] | Plant response rating, Barnyardgrass [1, 15] | Plant response rating, Corn (corn (Zea mays); [16]) | Plant response rating, Foxtail, Giant [2, 12] | Foxtail, Giant plant response rating [2, 14] | Plant response rating, Foxtail, Giant [2, 15] | Plant response rating, Kochia (kochia (Kochia scoparia); [12]) | Kochia plant response rating (kochia (Kochia scoparia); [14]) | Plant response rating, Kochia (kochia (Kochia scoparia); [15]) | Plant response rating, Pigweed [3, 12] | Pigweed plant response rating [3, 14] | Plant response rating, Pigweed [3, 15] | Plant response rating, Ragweed [4, 12] | Plant response rating, Ragweed [4, 15] | Plant response rating, Ryegrass, Italian [5, 12] | Plant response rating, Ryegrass, Italian [5, 15] | Plant response rating, Wheat [6, 16] | Plant response rating, Blackgrass [7, 16] | Plant response rating, Galium [8, 16] | further results
1 | Cc1nn(C)c(=O)c(-c2cccc3ccc(OC(F)F)cc23)c1O [Compound 93] | 0 | 0 | 0 | 0 | 0 | 0 | 0 | 20 | 0 | 30 | 30 | 20 | 90 | 0 | 20 | 40 | 40 | 0 | 0 | 70 | Barnyardgrass plant response rating [1, 13]: 20; Corn plant response rating (corn (Zea mays); 500 g ai/ha): 30; Foxtail, Giant plant response rating [2, 13]: 10; Kochia plant response rating (kochia (Kochia scoparia); [13]): 30; Pigweed plant response rating [3, 13]: 60; Ragweed plant response rating [4, 13]: 50; Ragweed plant response rating [4, 14]: 0; Ryegrass, Italian plant response rating [5, 13]: 90; Ryegrass, Italian plant response rating [5, 14]: 20; Wheat plant response rating ([6]; 500 g ai/ha): 20; Blackgrass plant response rating ([7]; 500 g ai/ha): 0; Galium plant response rating ([8]; 500 g ai/ha): 90; Plant response rating, Barnyardgrass [9]: 0; Plant response rating, Ducksalad [10]: 0; Plant response rating, Rice (rice (Oryza sativa)): 0; Plant response rating, Sedge, Umbrella [11]: 50
2 | CC(=O)Oc1cnn(C)c(=O)c1-c1c(C)sc2ccccc12 [Compound 120] | 0 | 0 | 30 | 0 | 0 | 0 | 20 | 0 | 0 | 0 | 20 | 0 | 70 | 0 | 30 | 20 | 30 | 0 | 0 | 40 | Plant response rating, Barnyardgrass [1, 17]: 10; Plant response rating, Corn (corn (Zea mays); [18]): 0; Plant response rating, Foxtail, Giant [2, 17]: 10; Plant response rating, Kochia (kochia (Kochia scoparia); [17]): 30; Plant response rating, Pigweed [3, 17]: 50; Plant response rating, Ragweed [4, 17]: 10; Ragweed plant response rating [4, 14]: 0; Plant response rating, Ryegrass, Italian [5, 17]: 80; Ryegrass, Italian plant response rating [5, 14]: 30; Plant response rating, Wheat [6, 18]: 0; Plant response rating, Blackgrass [7, 18]: 10; Plant response rating, Galium [8, 18]: 70
3 | Cc1nn(C)c(=O)c(-c2cccc3ccc(I)cc23)c1O [Compound 70] | 0 | 0 | – | 0 | 30 | 0 | 30 | 50 | 10 | 40 | 80 | 60 | 100 | 40 | 80 | 60 | 90 | 0 | 10 | 70 | Barnyardgrass plant response rating [1, 13]: 10; Plant response rating, Barnyardgrass ([1]; Preemergence, 500 g ai/ha, 0 to 100 scale, 0 no effect, 100 complete control): 30; Corn plant response rating (corn (Zea mays); 500 g ai/ha): 0; Foxtail, Giant plant response rating [2, 13]: 25; Kochia plant response rating (kochia (Kochia scoparia); [13]): 60; Pigweed plant response rating [3, 13]: 80; Ragweed plant response rating [4, 13]: 70; Ragweed plant response rating [4, 14]: 70; Ryegrass, Italian plant response rating [5, 13]: 80; Ryegrass, Italian plant response rating [5, 14]: 60; Wheat plant response rating ([6]; 500 g ai/ha): 0; Blackgrass plant response rating ([7]; 500 g ai/ha): 30; Galium plant response rating ([8]; 500 g ai/ha): 90
4 | Cc1ccc2ccccc2c1-c1c(OS(C)(=O)=O)cnn(C)c1=O [Compound 142] | 10 | 10 | 70 | 0 | 10 | 10 | 60 | 0 | 0 | 0 | 20 | 60 | 50 | 0 | 40 | 80 | 80 | 0 | 10 | 70 | Plant response rating, Barnyardgrass [1, 17]: 20; Plant response rating, Corn (corn (Zea mays); [18]): 0; Plant response rating, Foxtail, Giant [2, 17]: 20; Plant response rating, Kochia (kochia (Kochia scoparia); [17]): 20; Plant response rating, Pigweed [3, 17]: 50; Plant response rating, Ragweed [4, 17]: 20; Plant response rating, Ryegrass, Italian [5, 17]: 90; Plant response rating, Wheat [6, 18]: 0; Plant response rating, Blackgrass [7, 18]: 20; Plant response rating, Galium [8, 18]: 80
